The source of these data is paper PMC9025555, “Chiral Recognition R- and RS- of New Antifungal: Complexation/Solubilization/Dissolution Thermodynamics and Permeability Assay” (Pharmaceutics, 2022).

The conditions of data set [1]: cited from earlier work.
A further data set can be described thus: in vitro. Type of data set: in vitro ADME. Conditions: pH 7.4, pH 7.4; CD 0.01087 M; 310.15 K; read-out: Permeability Coefficient (Papp). As to the method: Permeability coefficients of RS-186 and R-98 were measured through the PermeaPad barrier (PHABIOC, Germany, Espelkamp, www.permeapad.com, accessed on 20 May 2021) of an effective surface area of 0.785 cm^2 in a vertical type of Franz diffusion cell (PermeGear, Inc., Hellertown, PA, USA) with 7 mL volume. PermeaPad is a biomimetic membrane proposed by di Cagno and Bauer-Brandl for the fast screening of the permeability of the marketed drugs and drug-like compounds. In brief, the barrier was mounted between the donor and receptor chambers. The donor chamber was filled with a stock solution of the investigated substance in buffer solution at pH 2.0 or pH 7.4 and was stirred vigorously during the permeability experiment. The receptor compartment contained 1 mL of the respective fresh buffer. The system was thermostated at 310.15 ± 0.1 K. A probe of 0.5 mL was withdrawn every 30 min from the receptor chamber and replaced with an equal amount of the respective fresh buffer. The permeation process followed the reverse dialysis. The withdrawn samples were analyzed in 96-well UV black plate (Costar) via spectrophotometer (Spectramax 190; Molecular devices, Molecular Devices Corporation, California, CA, USA) at the appropriate wavelength. The permeation profiles were plotted as the amount of the permeated drug over the surface area ( dQ/A ) versus the time ( t ). The flux ( J ) was calculated as a slope of permeation profiles according to the equation:(6) J=dQ/A×dt
The apparent permeability coefficient ( Papp ) was calculated by normalizing the flux measured over the concentration of the drug in the donor compartment ( C0 ), as described by the equation:(7) Papp=J/Co
Each permeability experiment was repeated at least 3 times and the average value of Papp was determined.

Data set [2] can be described thus: Phase solubility study (shake-flask) in buffers with 2-HP-β-CD. As to conditions: for solubility at 3 days: thermodynamic from solid, solubility in pure buffer solution, pure buffer; for order of the solubility: compared with reported FCZ and L-173. As to the method: An excess amount of the substance was placed in the glass screw-capped vials with the solvent. The vials were stirred in an air thermostat for a certain period of time (a period of 3 days was estimated to be enough for reaching the equilibrium between the solid and the solvent). Then, the saturated solutions were kept in a thermostat in mild conditions no less than 12 h and thereafter centrifuged at a fixed temperature (Biofuge pico, Thermo Electron LED GmbH, Langenselbold, Germany) for 10 min at 12,000 rpm. […] The experimental results were reported as an average of at least three replicated experiments. Temperature uncertainty was ±0.1 K. The sensitivity of UV spectroscopic determinations was characterized by the values of the limit of detection (LOD)/limit of quantification (LOQ).

Details of data set [3]: method as in doi:10.1016/j.molliq.2021.116535. Conditions: cited from earlier work.

In brackets after ≈: the same amount, converted by molar mass.

With `CC(C)NCC(O)COc1cccc2ccccc12.Cl` (stereo not shown) [propranolol HCl], the “greater solubility of racemic compound as compared to enantiomer” value in data set [1] is recorded as 3.7 fold.
As to `O=C1S/C(=C\c2ccc(Cl)cc2)C(=O)N1CC(O)CN1CCN(CC(O)(Cn2cncn2)c2ccc(F)cc2F)CC1` (stereo not shown) [R-98, (Z)-5-(4-chlorobenzylidene)-3-(3-(4-(2-(2,4-difluorophenyl)-2-hydroxy-3-(1H-1,2,4-triazol-1-yl)propyl)piperazin-1-yl)-2-hydroxypropyl)thiazolidine-2,4-dione], the Papp (in general, the rate of passage across a membrane or cell layer, normalised by area and donor concentration) in the data set “in vitro” turned out to be 1.19 ×10⁻⁶ cm/s. In addition, the solubility (in general, the dissolved amount per volume that the medium holds) at 3 days turned out to be 620 µM (≈ 384 µg/mL) in data set [2] (pH 2, aqueous buffer, pH 2.0) and 18 µM (≈ 11.1 µg/mL) in data set [2] (pH 7.4, aqueous buffer, pH 7.4).
As to `OC(Cn1cncn1)(Cn1cncn1)c1ccc(F)cc1F` [FCZ, fluconazole], the “Papp (PermeaPad)” value in data set [3] was 19 ×10⁻⁶ cm/s. For the same compound, the “order of the solubility” value in data set [2] (pH 2.0) is given as “(FCZ) > (RS-186 ≥ R-98) > (L-173)”; in data set [2] (pH 7.4), “(FCZ) > (R-98 ≥ RS-186) >> (L-173)”.
For the compound `O=C(CN1C(=O)S/C(=C\c2ccc(Cl)cc2)C1=O)N1CCN(CC(O)(Cn2cncn2)c2ccc(F)cc2F)CC1` [L-173, (5Z)-5-[(4-chlorophenyl)methylidene]-3-(2-{4-[2-(2,4-difluorophenyl)-2-hydroxy-3-(1H-1,2,4-triazol-1-yl)propyl]piperazin-1-yl}-2-oxoethyl)-1,3-thiazolidine-2,4-dione, reference compound], the “order of the solubility” value was “(FCZ) > (RS-186 ≥ R-98) > (L-173)” in data set [2] (pH 2.0) and “(FCZ) > (R-98 ≥ RS-186) >> (L-173)” in data set [2] (pH 7.4).
`CC(C)Cc1ccc(C(C)C(=O)O)cc1` (stereo not shown) [ibuprofen]: the “greater solubility of enantiomer against the racemate” value in data set [1] (pH 1.5) is “twice”.
